Experimental data reported in patent EP1020434A1, “3-AMIDINOANILINE DERIVATIVES, ACTIVATED BLOOD COAGULATION FACTOR X INHIBITORS, AND INTERMEDIATES FOR PRODUCING BOTH” (priority 1997, dated 1999).
Where a name gives a salt, the structure may show the parent alone. Read-outs that look alike come from different tables or passages of the source.

Key:
[1] = biological target: T1, human activated blood coagulation factor X (Homo sapiens, UniProt P00742); test: Measurement of inhibitory activity for activated blood coagulation factor X (chromogenic substrate S-2222); format: biochemical
T1 construct: purchased Calbiochem Corporation
Experimental: Measurement of inhibitory activity for activated blood coagulation factor X
(§1) Five µl of dimethylsulfoxide solution of test compound, 375 µl of tris-hydrochloric acid buffer (pH 8.4) and 100 µl of 1 mM S-2222 (Daiichi Pure Chemicals) aqueous solution were mixed. Then 20 µl of 0.6 U/ml human activated blood coagulation factor X (Calbiochem Corporation) in gelatin-glycine buffer was added and the mixture was incubated for 10 minutes at 37 °C. The reaction was terminated with the addition of 100 µl of 60 % acetic acid and absorbance (405 nm) was measured.
The group without the test compound was defined as control and the group without human activated blood coagulation factor X was defined as blank.

human thrombin = biological target: T2, human thrombin (Homo sapiens, UniProt P00734); test: Measurement of inhibitory activity for thrombin (chromogenic substrate S-2238); format: biochemical
T2 construct: human thrombin (Sigma Chemical Company); purchased Sigma Chemical Company
Experimental: Measurement of inhibitory activity for thrombin
as §1, with “S-2238” for “S-2222”, “2.0” for “0.6”, “thrombin (Sigma Chemical Company)” for “activated blood coagulation factor X (Calbiochem Corporation)”
The group without the test compound was defined as control and the group without human thrombin was defined as blank. […]

normal human plasma = test: Measurement of anticoagulation effects (plasma prothrombin time); format: biochemical; conditions: CT2, concentration that prolonged the clotting time (prothrombin time) of control by 2 times
Experimental: Measurement of anticoagulation effects (plasma prothrombin time)
Two µl of dimethylsulfoxide solution of test compound which was put in a process tube was incubated at 37 °C, and 50 µl of normal human plasma (George King Bio-Medical Inc.) was mixed. One minute later, 100 µl of plasma prothrombin time reagent (Neoplastin Plus®, Boehringer Mannheim) was added into the mixture. Prothrombin time was measured with ST4 (Boehringer Mannheim).
The group without the test compound was defined as control. The concentration of test compound that prolonged the clotting time of control by 2 times (CT2) was obtained and this value was used as the index of anticoagulation activity.

Male Wistar rats = test: Acute toxicity test; format: in vivo
Experimental: Male Wistar rats aged 7 weeks (SLC) were divided into several groups consisting of 5 rats. The test compound was dissolved at the concentration that became the administration volume as 2.5 ml/kg. The solution was administered through the tail vein at an infusion rate of 1 ml/minute. Observations were performed at constant intervals, and survival rate was judged for 24 hours.

[2] = IC50, concentration showing 50 % inhibition of control, 10 minutes at 37 °C, pH 8.4, read-out: Inhibitory activity for activated blood coagulation factor X
[3] = IC50, concentration showing 50 % inhibition of control, 10 minutes at 37 °C, pH 8.4, read-out: Inhibitory activity for thrombin

T1 sequence (P00742 235-488 limits assumed): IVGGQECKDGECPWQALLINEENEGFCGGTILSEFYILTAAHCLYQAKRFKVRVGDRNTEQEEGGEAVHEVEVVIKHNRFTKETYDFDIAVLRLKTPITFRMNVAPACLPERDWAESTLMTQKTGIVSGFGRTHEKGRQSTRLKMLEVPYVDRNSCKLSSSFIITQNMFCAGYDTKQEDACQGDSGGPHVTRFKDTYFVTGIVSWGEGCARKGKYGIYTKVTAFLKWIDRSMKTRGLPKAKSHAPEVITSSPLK
T1 sequence (P00742 41-179 partner limits assumed): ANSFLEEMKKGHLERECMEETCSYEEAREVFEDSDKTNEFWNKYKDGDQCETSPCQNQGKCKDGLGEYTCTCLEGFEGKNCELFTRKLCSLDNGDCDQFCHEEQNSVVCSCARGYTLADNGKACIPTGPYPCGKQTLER

| SMILES | IC50 [1, 2] [µM] | IC50 (human thrombin; [3]) [µM] | Anticoagulation effect (normal human plasma) [µM] | IC50 [1] [µM] | IC50 (human thrombin) [µM] | Death case (Male Wistar rats; 30 mg/kg through the tail vein, groups of 5 rats, survival judged for 24 hours) | death in acute toxicity test (Male Wistar rats; rats, intravenous administration, dose of 30 mg/kg) |
| --- | --- | --- | --- | --- | --- | --- | --- |
| CC(=N)N1CCC(Oc2ccc(NC(=O)CNc3cccc(C(=N)N)c3)cc2)CC1 [Compound 79, 2-(3-Amidinophenylamino)-N-[4-[1-(1-iminoethyl)piperidin-4-yloxy]phenyl]acetamide dihydrochloride] | 0.096 | 308 |  |  |  |  |  |
| CC(=N)N1CCC(c2ccc(NC(=O)CN(Cc3cccc(O)c3)c3cccc(C(=N)N)c3)cc2)CC1.Cl.Cl [Compound 52, 2-[N-(3-Amidinophenyl)-N-(3-hydroxybenzyl)amino]-N-[4-[1-(1-iminoethyl)piperidin-4-yl]phenyl]acetamide dihydrochloride] | 0.016 | 77 | 0.17 |  |  |  |  |
| CC(=N)N1CCC(Oc2ccc(NC(=O)CN(Cc3ccccc3)c3cccc(C(=N)N)c3)cc2)CC1 [Compound 58, 2-[N-(3-Amidinophenyl)-N-benzylaminol-N-[4-[1-(1-imino-ethyl)piperidin-4-yloxy]phenyl]acetamidedihydrochloride] |  |  | 0.24 | 0.042 | 100 |  |  |
| CC(=N)N1CCC(c2ccc(NC(=O)CN(Cc3nc[nH]c3C)c3cccc(C(=N)N)c3)cc2)CC1.Cl.Cl [Compound 74, 2-[N-(3-Amidinophenyl)-N-(5-methylimidazol-4-ylmethyl)amino]-N-[4-[1-(1-iminoethyl)piperidin-4-yl]phenyl]acetamide dihydrochloride] | 0.019 | 177 | 0.30 |  |  |  |  |
| CC(=N)N1CCC(c2ccc(NC(=O)CN(Cc3cccc(OCC(=O)O)c3)c3cccc(C(=N)N)c3)cc2)CC1.Cl.Cl [Compound 62, 2-[N-(3-Amidinophenyl)-N-(3-carboxymethyloxybenzyl)amino]-N-[4-[1-(1-iminoethyl)piperidin-4-yl]phenyl]acetamide dihydrochloride] |  | 206 | 0.21 |  |  | 0/5 | no death was observed |

Now from value to molecule, other results behind:

| IC50 [1, 2] [µM] | IC50 (human thrombin; [3]) [µM] | SMILES | Anticoagulation effect (normal human plasma) [µM] | IC50 [1] [µM] | IC50 (human thrombin) [µM] | Death case (Male Wistar rats; 30 mg/kg through the tail vein, groups of 5 rats, survival judged for 24 hours) | death in acute toxicity test (Male Wistar rats; rats, intravenous administration, dose of 30 mg/kg) |
| --- | --- | --- | --- | --- | --- | --- | --- |
| 0.008 | 42 | CC(=N)N1CCC(c2ccc(NC(=O)CN(Cc3cccc4ccccc34)c3cccc(C(=N)N)c3)cc2)CC1 [Compound 65, 2-[N-(3-Amidinophenyl)-N-(1-naphthylmethyl)amino]-N-[4-[1-(1-iminoethyl)piperidin-4-yl]phenyl]acetamide dihydrochloride] |  |  |  |  |  |
| 0.004 | 15 | CC(=N)N1CCC(c2ccc(NC(=O)CN(CC=C(C)C)c3cccc(C(=N)N)c3)cc2)CC1.Cl.Cl [Compound 55, 2-[N-(3-Amidinophenyl)-N-(3-methyl-2-butenyl)amino]-N-[4-[1-(1-iminoethyl)piperidin-4-yl]phenyl]acetamide dihydrochloride] | 0.091 |  |  |  |  |
| 0.015 | 13 | CC(C)=CCN(CC(=O)Nc1ccc(OC(C)C)cc1)c1cccc(C(=N)N)c1.Cl [Compound 22, 2-[N-(3-Amidinophenyl)-N-(3-methyl-2-butenyl)amino]-N-(4-isopropoxyphenyl)acetamide hydrochloride] | 0.29 |  |  |  |  |
